Experiment: xn = mol fraction of the nth substance listed
Conditions: 101 kPa, Liquid; for speed of sound: Single path-length method

CCc1ccccc1 [ethylbenzene] + COC(C)(C)C
Conditions | mass density [kg/m3] | speed of sound [m/s]
305.65 K, x2 = 0 | 855.837 | –
305.65 K, x2 = 0.046 | 850.573 | –
305.65 K, x2 = 0.106 | 843.52 | –
305.65 K, x2 = 0.212 | 831.061 | –
305.65 K, x2 = 0.299 | 820.447 | –
305.65 K, x2 = 0.402 | 807.578 | –
305.65 K, x2 = 0.503 | 796.166 | –
305.65 K, x2 = 0.6 | 782.111 | –
305.65 K, x2 = 0.701 | 768.689 | –
305.65 K, x2 = 0.822 | 752.062 | –
305.65 K, x2 = 0.899 | 741.065 | –
305.65 K, x2 = 0.948 | 733.91 | –
308.15 K, x2 = 0 | 853.622 | 1276.8
308.15 K, x2 = 0.046 | 848.347 | 1264.9
308.15 K, x2 = 0.106 | 841.274 | 1249.5
308.15 K, x2 = 0.212 | 828.779 | 1221.9
308.15 K, x2 = 0.299 | 818.132 | 1198.5
308.15 K, x2 = 0.402 | 805.218 | 1169.2
308.15 K, x2 = 0.503 | 793.77 | 1144
308.15 K, x2 = 0.6 | 779.66 | 1112.2
308.15 K, x2 = 0.701 | 766.192 | 1082.7
308.15 K, x2 = 0.822 | 749.497 | 1045.6
308.15 K, x2 = 0.899 | 738.451 | 1021
308.15 K, x2 = 0.948 | 731.264 | 1005.2
310.65 K, x2 = 0 | 851.407 | 1266.5
310.65 K, x2 = 0.046 | 846.119 | 1254.8
310.65 K, x2 = 0.106 | 839.024 | 1239.2
310.65 K, x2 = 0.212 | 826.493 | 1211.5
310.65 K, x2 = 0.299 | 815.815 | 1188.1
310.65 K, x2 = 0.402 | 802.853 | 1158.6
310.65 K, x2 = 0.503 | 791.367 | 1133.2
310.65 K, x2 = 0.6 | 777.204 | 1101.4
310.65 K, x2 = 0.701 | 763.689 | 1071.8
310.65 K, x2 = 0.822 | 746.926 | 1034.6
310.65 K, x2 = 0.899 | 735.825 | 1009.8
310.65 K, x2 = 0.948 | 728.607 | 993.9
313.15 K, x2 = 0 | 849.186 | 1256.3
313.15 K, x2 = 0.046 | 843.886 | 1244.6
313.15 K, x2 = 0.106 | 836.773 | 1229
313.15 K, x2 = 0.212 | 824.202 | 1201
313.15 K, x2 = 0.299 | 813.486 | 1177.5
313.15 K, x2 = 0.402 | 800.48 | 1148
313.15 K, x2 = 0.503 | 788.959 | 1122.5
313.15 K, x2 = 0.6 | 774.736 | 1090.5
313.15 K, x2 = 0.701 | 761.174 | 1060.8
313.15 K, x2 = 0.822 | 744.341 | 1023.4
313.15 K, x2 = 0.899 | 733.188 | 998.53
313.15 K, x2 = 0.948 | 725.934 | 982.63
315.65 K, x2 = 0 | 846.964 | 1246.1
315.65 K, x2 = 0.046 | 841.648 | 1234.5
315.65 K, x2 = 0.106 | 834.515 | 1218.7
315.65 K, x2 = 0.212 | 821.909 | 1190.8
315.65 K, x2 = 0.299 | 811.155 | 1166.9
315.65 K, x2 = 0.402 | 798.107 | 1137.5
315.65 K, x2 = 0.503 | 786.547 | 1111.9
315.65 K, x2 = 0.6 | 772.257 | 1079.6
315.65 K, x2 = 0.701 | 758.651 | 1050
315.65 K, x2 = 0.822 | 741.744 | 1012.4
315.65 K, x2 = 0.899 | 730.538 | 987.36
315.65 K, x2 = 0.948 | 723.249 | 971.33
318.15 K, x2 = 0 | 844.741 | 1236.1
318.15 K, x2 = 0.046 | 839.413 | 1224.5
318.15 K, x2 = 0.106 | 832.261 | 1208.7
318.15 K, x2 = 0.212 | 819.612 | 1180.5
318.15 K, x2 = 0.299 | 808.784 | 1155.9
318.15 K, x2 = 0.402 | 795.73 | 1127
318.15 K, x2 = 0.503 | 784.128 | 1101.4
318.15 K, x2 = 0.6 | 769.777 | 1068.9
318.15 K, x2 = 0.701 | 756.122 | 1039.2
318.15 K, x2 = 0.822 | 739.136 | 1001.4
318.15 K, x2 = 0.899 | 727.875 | 976.23
318.15 K, x2 = 0.948 | 720.551 | 960.13
320.65 K, x2 = 0 | 842.518 | 1226.1
320.65 K, x2 = 0.046 | 837.173 | 1214.5
320.65 K, x2 = 0.106 | 830.003 | 1198.6
320.65 K, x2 = 0.212 | 817.315 | 1170.4
320.65 K, x2 = 0.299 | 806.474 | 1146
320.65 K, x2 = 0.402 | 793.356 | 1116.8
320.65 K, x2 = 0.503 | 781.711 | 1091
320.65 K, x2 = 0.6 | 767.333 | 1058.7
320.65 K, x2 = 0.701 | 753.581 | 1028.4
320.65 K, x2 = 0.822 | 736.516 | 990.46
320.65 K, x2 = 0.899 | 725.199 | 965.11
320.65 K, x2 = 0.948 | 717.839 | 948.99
323.15 K, x2 = 0 | 840.306 | 1216.3
323.15 K, x2 = 0.046 | 834.949 | 1204.7
323.15 K, x2 = 0.106 | 827.754 | 1188.8
323.15 K, x2 = 0.212 | 815.028 | 1160.5
323.15 K, x2 = 0.299 | 804.174 | 1136.3
323.15 K, x2 = 0.402 | 791.012 | 1106.9
323.15 K, x2 = 0.503 | 779.302 | 1080.8
323.15 K, x2 = 0.6 | 764.898 | 1048.8
323.15 K, x2 = 0.701 | 751.042 | 1017.8
323.15 K, x2 = 0.822 | 733.902 | 979.73
323.15 K, x2 = 0.899 | 722.521 | 954.17
323.15 K, x2 = 0.948 | 715.125 | 938
